Assay results from US20080311048A1, “Imaging Agent” (ISIS INNOVATION LTD., priority 2005, published 2008).

Test system: left hemisphere of rat brains injected with Interleukin-1β (selectin expression)
Assay: MRI scans of rat brains after interleukin-1β injection into the left hemisphere
Conditions: in vivo
Method: The magnetic particles of the present invention can be used in a number of different methods. In particular, sugars conjugated to ultra small super paramagnetic iron oxide provide more sensitive detection of cerebroendothelial cell activation than know contrast agents such as Gd-DTPA-B(sLEex)A. In particular conjugated magnetic particles in accordance with the present invention were used in MRI scans. Interleukin-1β was injected into the left hemisphere of rat brains. Interleukin beta was used to induce an inflammatory response in the left hemispheres. All samples were subjected to MRI scans. Controls were carried out using Gd alone, or superparamagnetic particles alone. Two different conjugates, one of which having a disaccharide and one of which having Sialyl Lewis X, both in accordance with the present invention were tested. […] The control with Gd (shown in FIG. 2) confirmed that there was no breakdown of the blood brain barrier. […] Thus, the conjugates of the present invention allowed imaging of the areas of the brain that had been injected with interleukin-1β, and which would be expected to show greater levels of selectin expression.

## Sialyl Lewis X
  MRI scan: asymmetry between left and right cranial hemispheres: asymmetry, being darker in the left hemisphere than the right
